Format in all cases: physicochemical
A short description of series [1]: Electron spin relaxation times by pulsed spin-echo EPR (X-band) and CW EPR line widths (L-band) in liquid solution. The conditions noted are these: pulsed spin-echo EPR in X-band (9.5 GHz), CW EPR line widths in L-band (1.1 GHz). The text has this: The substance N@C63(COOH)6 (III) according to the invention has long spin-relaxation times of the unpaired electron. It was possible to measure very long electronic relaxation times T1e≅150 μs and T2e≅22 μs in liquid solution, which are longer by at least one order of magnitude than that of the […], (see FIG. 4) with pulsed spin-echo EPR measurements in X-band (9.5 GHz EPR larmor frequency) and from CW EPR line widths in the L-band (1.1 GHz of EPR larmor frequency). From [ii] Table 3, page 8, in isotonic NaCl solution at 37° C.: “predeuterated trityl”: T1e≅13 μs, T2e≅8 μs; “deuterated hydroxy trityl”: T1e≅11 μs, T2e≅8 μs, “symmetrical trityl”: T1e≅9 μs, T2e≅9 μs.

Series [2] in a line: Relaxometric measurement of proton relaxivity. Particulars: aqueous solution, spin concentration 6 μm, 37° C., about 15 mT (600 kHz). As for the experimental part:
Substance (III) has a relaxivity r1≅47 mM^−1s^−1 (compared to the trityl derivatives with relaxivity values of between 0.14 mM^−1s^−1 and 0.44 mM^−1s^−1 [ii], and [iii]) in aqueous solution with a spin concentration of 6 μm at a solvent temperature of 37° C. This unexpectedly high value is present at a magnetic field strength of about 15 mT, which corresponds to a radiofrequency of 600 kHz and thus to the conditions of very low magnetic field strength that are necessary for OMRI.

Series [3] can be described thus: EPR measurement of oxygen sensitivity (EPR line widening after flushing with oxygen). Particulars: for widening of the EPR line after the solution is flushed with oxygen: in toluene, reversible.

Take N@C63 (COONa)6 [III]: in series [1], the “electronic relaxation time T1e” value is approximately 150 μs and the “electronic relaxation time T2e” value is listed as approximately 22 μs. For the same substance, the “relaxivity r1” value in series [2] was approximately 47 mM⁻¹ s⁻¹.

For P@C60 [IX], in series [3], the oxygen-sensitivity result is listed as “elevated” and the “widening of the EPR line after the solution is flushed with oxygen” value was 20 ×.

With N@C60 [I], in series [3], the oxygen-sensitivity entry is “low” and the “widening of the EPR line after the solution is flushed with oxygen” value is given as “does not occur”.

The values are drawn from patent US20070014727A1, “Contrast media for nuclear spin tomography with use of the overhauser effect” (priority 2005, published 2007).
